# In paper PMC12420824, “Discovery of a selective alpha-kinase 1 inhibitor for the rare genetic disease ROSAH syndrome” (Nature Communications, 2025):
# Several values for one entry are separate records, joined by “and”; a condition that tells them apart may be missing. Identical values can stand only once.
# Columns and labels:
# [1] = biological target: COT1/MAP3K8 (Homo sapiens, UniProt P41279); assay: HotSpot kinase assay; settings: read-out: % Enzyme Activity (relative to DMSO control), 10 uM
# Source text: (§1) Additionally, a 10-dose dilution series of staurosporine and other enzyme-appropriate compounds were included as positive control inhibitors.
# [2] = biological target: TRKA (Homo sapiens, UniProt P04629); assay: HotSpot kinase assay; settings: read-out: % Enzyme Activity (relative to DMSO control), 10 uM
# Source text: as §1
# [3] = biological target: RIPK4 (Homo sapiens, UniProt P57078); assay: HotSpot kinase assay; settings: read-out: % Enzyme Activity (relative to DMSO control), 10 uM
# Source text: as §1
# [4] = biological target: OSR1/OXSR1 (Homo sapiens, UniProt O95747); assay: HotSpot kinase assay; settings: read-out: % Enzyme Activity (relative to DMSO control), 10 uM
# Source text: as §1
# [5] = biological target: MSK1/RPS6KA5 (Homo sapiens, UniProt O75582); assay: HotSpot kinase assay; settings: read-out: % Enzyme Activity (relative to DMSO control), 10 uM
# Source text: as §1
# [6] = biological target: P38a/MAPK14 (Homo sapiens, UniProt Q16539); assay: HotSpot kinase assay; settings: read-out: % Enzyme Activity (relative to DMSO control), 10 uM
# Source text: as §1
# [7] = biological target: EPHA6 (Homo sapiens, UniProt Q9UF33); assay: HotSpot kinase assay; settings: read-out: % Enzyme Activity (relative to DMSO control), 10 uM
# [8] = biological target: MLCK2/MYLK2 (Homo sapiens, UniProt Q9H1R3); assay: HotSpot kinase assay; settings: read-out: % Enzyme Activity (relative to DMSO control), 10 uM
# Source text: as §1
# [9] = biological target: EIF2AK3 (Homo sapiens, UniProt Q9NZJ5); assay: HotSpot kinase assay; settings: read-out: % Enzyme Activity (relative to DMSO control), 10 uM
# Source text: as §1
# [10] = biological target: SGK3/SGKL (Homo sapiens, UniProt Q96BR1); assay: HotSpot kinase assay; settings: read-out: % Enzyme Activity (relative to DMSO control), 10 uM
# Source text: as §1
# [11] = biological target: DNA-PK (Homo sapiens, UniProt P78527); assay: HotSpot kinase assay; settings: read-out: % Enzyme Activity (relative to DMSO control), 10 uM
# Source text: as §1
# [12] = biological target: EPHB4 (Homo sapiens, UniProt P54760); assay: HotSpot kinase assay; settings: read-out: % Enzyme Activity (relative to DMSO control), 10 uM
# Source text: as §1
# [13] = biological target: MYLK3 (Homo sapiens, UniProt Q32MK0); assay: HotSpot kinase assay; settings: read-out: % Enzyme Activity (relative to DMSO control), 10 uM
# [14] = biological target: ABL1 (Homo sapiens, UniProt P00519); assay: HotSpot kinase assay; settings: read-out: % Enzyme Activity (relative to DMSO control), 10 uM
# Source text: as §1
# [15] = biological target: CDK4/cyclin D3 (Homo sapiens, UniProt P11802); assay: HotSpot kinase assay; settings: read-out: % Enzyme Activity (relative to DMSO control), 10 uM
# Source text: as §1
# [16] = biological target: STK33 (Homo sapiens, UniProt Q9BYT3); assay: HotSpot kinase assay; settings: read-out: % Enzyme Activity (relative to DMSO control), 10 uM
# [17] = biological target: FYN (Homo sapiens, UniProt P06241); assay: HotSpot kinase assay; settings: read-out: % Enzyme Activity (relative to DMSO control), 10 uM
# [18] = biological target: CK2a (Homo sapiens, UniProt P68400); assay: HotSpot kinase assay; settings: read-out: % Enzyme Activity (relative to DMSO control), 10 uM
# Source text: as §1
# [19] = biological target: MARK3 (Homo sapiens, UniProt P27448); assay: HotSpot kinase assay; settings: read-out: % Enzyme Activity (relative to DMSO control), 10 uM
# Source text: as §1
# [20] = biological target: MARK1 (Homo sapiens, UniProt Q9P0L2); assay: HotSpot kinase assay; settings: read-out: % Enzyme Activity (relative to DMSO control), 10 uM
# [21] = biological target: MKK6 (Homo sapiens, UniProt P52564); assay: HotSpot kinase assay; settings: read-out: % Enzyme Activity (relative to DMSO control), 10 uM
# Source text: as §1
# [22] = biological target: JAK2 (Homo sapiens, UniProt O60674); assay: HotSpot kinase assay; settings: read-out: % Enzyme Activity (relative to DMSO control), 10 uM
# [23] = biological target: VRK2 (Homo sapiens, UniProt Q86Y07); assay: HotSpot kinase assay; settings: read-out: % Enzyme Activity (relative to DMSO control), 10 uM
# [24] = biological target: ACK1 (Homo sapiens, UniProt Q07912); assay: HotSpot kinase assay; settings: read-out: % Enzyme Activity (relative to DMSO control), 10 uM
# [25] = biological target: VRK1 (Homo sapiens, UniProt Q99986); assay: HotSpot kinase assay; settings: read-out: % Enzyme Activity (relative to DMSO control), 10 uM
# Source text: as §1
# [26] = biological target: RIPK2 (Homo sapiens, UniProt O43353); assay: HotSpot kinase assay; settings: read-out: % Enzyme Activity (relative to DMSO control), 10 uM
# [27] = biological target: CLK4 (Homo sapiens, UniProt Q9HAZ1); assay: HotSpot kinase assay; settings: read-out: % Enzyme Activity (relative to DMSO control), 10 uM
# Source text: as §1
# [28] = biological target: c-Src (Homo sapiens, UniProt P12931); assay: HotSpot kinase assay; settings: read-out: % Enzyme Activity (relative to DMSO control), 10 uM
# [29] = test system: HEK-293 cells stably overexpressing ALPK1; assay: Supernatant CXCL8 ELISA; settings: ALPK1 OE
# Procedure: In (a) each dot represents a single well measurement. […] Each dot represents the mean of duplicate technical repeats. c NF-κB reporter cells were transiently transfected with plasmids to overexpress human ALPK1 or ALPK1[T237M]. […] Supernatant CXCL8 levels were then measured by ELISA. In c−f data represent the mean ± SEM for the triplicate wells of each treatment group. Statistical outliers were determined using Grubb’s test and indicated in the Source Data file. In (d) statistical comparisons to the wild-type ALPK1-overexpressing stable cell line group were made using the two-tailed unpaired Student’s t-tests. In (b−f) curve fitting and IC50 value calculations were performed with GraphPad Prism 6.
# To obtain HEK-293 cells stably overexpressing ALPK1 or ALPK1[T237M], codon-optimized DNA coding sequencing for Flag-tagged human ALPK1 and ALPK1[T237M] were inserted into the pcDNA3.1 vector. Plasmids were transfected into HEK-293 cells using Lipofectamine 2000 as per the manufacturer’s protocol. At 48 h post-transfection, G418 (#A1720, Sigma-Aldrich, St. Louis, MO, USA) was used to select resistant transformed cells, and single-cell clones were prepared through a limiting dilution-based approach. Western blotting (See Below) was used to assess Flag-tagged ALPK1 and ALPK1[T237M] overexpression. […] Cells were then harvested to analyze the expression of CXCL10, TNF, and CXCL8 by qPCR (See Below).
# [30] = Pharmacokinetic analyses, oral once daily for 10 days; settings: for CAVG: 10th daily dose; for concentration at 0 h / concentration at 0.5 h / concentration at 1 h / concentration at 2 h / concentration at 4 h / concentration at 6 h / concentration at 8 h / concentration at 12 h / concentration at 24 h / AUC / CL/F / Cmax / Tmax / Vd/F / half-life: male, C57BL/6J, mouse, plasma; for concentration at 0 h / concentration at 0.5 h / concentration at 1 h / concentration at 2 h / concentration at 4 h / concentration at 6 h / concentration at 8 h / concentration at 12 h / concentration at 24 h: oral, DF-003 Conc. in plasma; for concentration at 0 h: 0 hours after 10th dosing; for concentration at 0.5 h: 0.5 hours after 10th dosing; for concentration at 1 h: 1 hour after 10th dosing; for concentration at 2 h: 2 hours after 10th dosing; for concentration at 4 h: 4 hours after 10th dosing; for concentration at 6 h: 6 hours after 10th dosing; for concentration at 8 h: 8 hours after 10th dosing; for concentration at 12 h: 12 hours after 10th dosing; for concentration at 24 h: 24 hours after 10th dosing; for AUC / CL/F / Cmax / Tmax / Vd/F / half-life: po
# Procedure: Mice were housed in a specific pathogen-free (SPF) animal facility at Drug Farm (Shanghai, China) in individually ventilated cages on a 12 h light/dark cycle with a bedding of wood shavings and ad libitum access to rodent chow. […] Six 8 week-old male C57BL/6J mice from Zhejiang Vital River Laboratory Animal Technology Co., Ltd. (Zhejiang, China) were randomly assigned to 2 groups (3 animals/group). […] The oral dosing volume for all animals was 10 mL/kg body weight. Drinking water and certified rodent diet were available to animals ad libitum, except that animals were fasted 16 h prior to the last administration until 4 h after the last dosing. Blood samples at 0 (right before the last dosing), 0.5, 1, 2, 4, 6, 8, 12, and 24 h after the 10th dosing were collected from the tail vein and transferred into tubes containing K2-EDTA. The tubes were gently inverted several times to ensure mixing and immediately placed on wet ice. Plasma was obtained by centrifugation at 3200 × g at 4 °C for 10 min and stored at ≤ -60 °C until subsequent analysis. Twenty-four hours after the 10th dosing, the animals were euthanized by CO2 inhalation.
# [31] = 3 mg/kg, 3 mg/kg, individual animals
# [32] = 5 mg/kg, 5 mg/kg, individual animals
# Chain of CLK4 (Q9HAZ1 whole entry): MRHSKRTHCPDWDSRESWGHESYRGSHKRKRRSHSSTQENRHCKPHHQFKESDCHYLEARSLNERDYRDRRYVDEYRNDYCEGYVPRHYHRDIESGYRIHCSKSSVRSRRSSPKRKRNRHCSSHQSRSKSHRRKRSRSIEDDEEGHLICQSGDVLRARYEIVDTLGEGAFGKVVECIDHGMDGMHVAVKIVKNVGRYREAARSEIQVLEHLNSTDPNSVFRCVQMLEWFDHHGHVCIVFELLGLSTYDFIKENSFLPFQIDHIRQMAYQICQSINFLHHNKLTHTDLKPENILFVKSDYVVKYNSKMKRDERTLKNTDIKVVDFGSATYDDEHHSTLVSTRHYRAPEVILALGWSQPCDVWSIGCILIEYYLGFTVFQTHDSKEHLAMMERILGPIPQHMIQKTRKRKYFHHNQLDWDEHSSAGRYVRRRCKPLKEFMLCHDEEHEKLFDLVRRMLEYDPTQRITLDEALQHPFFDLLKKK
# Chain of P38a/MAPK14 (Q16539 whole entry): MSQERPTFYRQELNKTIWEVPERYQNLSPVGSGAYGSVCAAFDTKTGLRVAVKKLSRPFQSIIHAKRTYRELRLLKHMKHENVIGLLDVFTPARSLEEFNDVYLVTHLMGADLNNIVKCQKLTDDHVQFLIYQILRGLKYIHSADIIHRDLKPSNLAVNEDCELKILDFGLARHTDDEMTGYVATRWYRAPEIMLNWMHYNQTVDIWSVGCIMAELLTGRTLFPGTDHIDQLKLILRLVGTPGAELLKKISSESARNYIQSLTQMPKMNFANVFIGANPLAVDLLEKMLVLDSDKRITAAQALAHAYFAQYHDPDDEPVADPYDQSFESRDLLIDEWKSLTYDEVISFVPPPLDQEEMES
# Chain of EPHA6 (Q9UF33 23-1036): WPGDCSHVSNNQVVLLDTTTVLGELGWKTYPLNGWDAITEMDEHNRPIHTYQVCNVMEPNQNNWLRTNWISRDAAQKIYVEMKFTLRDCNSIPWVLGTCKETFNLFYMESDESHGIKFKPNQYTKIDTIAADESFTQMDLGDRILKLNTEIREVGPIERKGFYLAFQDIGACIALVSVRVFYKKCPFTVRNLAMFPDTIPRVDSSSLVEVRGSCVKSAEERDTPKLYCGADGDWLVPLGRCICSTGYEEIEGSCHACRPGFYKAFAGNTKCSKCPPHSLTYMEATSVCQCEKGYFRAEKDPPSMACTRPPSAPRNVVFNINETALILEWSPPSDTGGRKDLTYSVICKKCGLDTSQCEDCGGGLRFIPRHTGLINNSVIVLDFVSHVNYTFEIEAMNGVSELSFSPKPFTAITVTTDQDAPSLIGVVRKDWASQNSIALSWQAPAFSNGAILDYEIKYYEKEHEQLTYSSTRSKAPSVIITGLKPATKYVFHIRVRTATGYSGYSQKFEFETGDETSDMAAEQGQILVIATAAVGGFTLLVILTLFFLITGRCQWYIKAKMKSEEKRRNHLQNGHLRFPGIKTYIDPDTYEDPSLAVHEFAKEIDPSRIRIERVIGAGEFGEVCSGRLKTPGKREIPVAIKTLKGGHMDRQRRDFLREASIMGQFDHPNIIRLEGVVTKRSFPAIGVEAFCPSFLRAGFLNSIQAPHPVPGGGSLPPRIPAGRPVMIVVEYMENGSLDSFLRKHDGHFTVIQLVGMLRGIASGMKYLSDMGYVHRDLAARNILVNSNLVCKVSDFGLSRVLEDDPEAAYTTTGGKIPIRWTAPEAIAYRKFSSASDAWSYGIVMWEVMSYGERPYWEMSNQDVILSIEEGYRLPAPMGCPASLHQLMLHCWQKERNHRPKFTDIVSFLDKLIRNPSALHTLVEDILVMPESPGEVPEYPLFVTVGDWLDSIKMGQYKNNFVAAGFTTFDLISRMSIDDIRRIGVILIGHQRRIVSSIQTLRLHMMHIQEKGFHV
# Chain of MLCK2/MYLK2 (Q9H1R3 whole entry): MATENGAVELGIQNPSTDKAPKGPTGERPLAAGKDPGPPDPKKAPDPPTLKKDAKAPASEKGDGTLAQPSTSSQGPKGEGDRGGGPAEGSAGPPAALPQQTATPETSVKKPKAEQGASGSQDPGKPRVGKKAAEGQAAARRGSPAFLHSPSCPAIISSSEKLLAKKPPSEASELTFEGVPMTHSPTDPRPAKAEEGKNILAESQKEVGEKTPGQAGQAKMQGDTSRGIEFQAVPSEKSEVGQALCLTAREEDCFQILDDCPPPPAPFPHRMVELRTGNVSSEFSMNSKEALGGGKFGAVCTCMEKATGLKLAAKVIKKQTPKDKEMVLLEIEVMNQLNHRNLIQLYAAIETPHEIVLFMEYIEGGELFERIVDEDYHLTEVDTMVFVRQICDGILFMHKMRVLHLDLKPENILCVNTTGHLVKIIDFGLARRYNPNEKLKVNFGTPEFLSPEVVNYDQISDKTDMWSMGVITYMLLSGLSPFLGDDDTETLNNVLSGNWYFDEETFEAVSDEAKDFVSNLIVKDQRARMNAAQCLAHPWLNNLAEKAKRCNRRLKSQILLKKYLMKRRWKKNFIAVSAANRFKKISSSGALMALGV
# Chain of STK33 (Q9BYT3 whole entry): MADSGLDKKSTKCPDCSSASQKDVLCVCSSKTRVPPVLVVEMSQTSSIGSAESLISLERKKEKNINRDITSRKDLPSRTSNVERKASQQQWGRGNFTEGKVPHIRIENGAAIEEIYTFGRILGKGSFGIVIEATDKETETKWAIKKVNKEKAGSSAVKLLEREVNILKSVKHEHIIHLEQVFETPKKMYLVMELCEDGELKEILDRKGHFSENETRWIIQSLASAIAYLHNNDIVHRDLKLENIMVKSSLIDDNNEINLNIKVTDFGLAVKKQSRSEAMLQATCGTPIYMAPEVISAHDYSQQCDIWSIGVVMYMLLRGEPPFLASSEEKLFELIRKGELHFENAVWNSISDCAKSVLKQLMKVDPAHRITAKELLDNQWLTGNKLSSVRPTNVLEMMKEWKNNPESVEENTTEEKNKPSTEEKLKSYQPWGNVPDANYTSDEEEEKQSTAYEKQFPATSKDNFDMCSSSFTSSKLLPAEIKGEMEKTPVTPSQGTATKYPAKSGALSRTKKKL
# Chain of COT1/MAP3K8 (P41279 whole entry): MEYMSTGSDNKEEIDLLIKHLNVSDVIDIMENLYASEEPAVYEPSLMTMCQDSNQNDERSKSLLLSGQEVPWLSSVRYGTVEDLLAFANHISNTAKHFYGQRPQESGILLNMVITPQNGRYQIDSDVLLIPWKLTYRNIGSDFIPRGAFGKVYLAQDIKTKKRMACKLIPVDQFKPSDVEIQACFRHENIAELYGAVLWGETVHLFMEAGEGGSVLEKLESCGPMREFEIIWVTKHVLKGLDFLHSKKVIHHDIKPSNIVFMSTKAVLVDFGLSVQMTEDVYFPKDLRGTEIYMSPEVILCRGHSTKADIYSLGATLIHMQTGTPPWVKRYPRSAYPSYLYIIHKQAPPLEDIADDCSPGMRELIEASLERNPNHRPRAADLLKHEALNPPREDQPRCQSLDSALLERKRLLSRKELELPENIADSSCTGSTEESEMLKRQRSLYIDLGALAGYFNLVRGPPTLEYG
# Chain of RIPK2 (O43353 whole entry): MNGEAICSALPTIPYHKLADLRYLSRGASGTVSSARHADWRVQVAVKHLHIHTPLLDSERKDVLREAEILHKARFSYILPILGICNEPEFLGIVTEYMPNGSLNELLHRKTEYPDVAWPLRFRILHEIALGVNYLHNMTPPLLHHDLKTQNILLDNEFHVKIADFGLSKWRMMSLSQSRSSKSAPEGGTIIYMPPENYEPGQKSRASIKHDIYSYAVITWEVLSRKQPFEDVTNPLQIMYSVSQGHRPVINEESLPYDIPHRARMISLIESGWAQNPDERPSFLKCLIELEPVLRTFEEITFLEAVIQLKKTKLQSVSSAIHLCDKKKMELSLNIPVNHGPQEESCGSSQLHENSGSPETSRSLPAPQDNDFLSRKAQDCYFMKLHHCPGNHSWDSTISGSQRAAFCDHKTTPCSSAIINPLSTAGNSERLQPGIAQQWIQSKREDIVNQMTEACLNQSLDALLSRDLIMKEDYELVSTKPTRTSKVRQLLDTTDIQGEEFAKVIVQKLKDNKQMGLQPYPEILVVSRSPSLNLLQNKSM
# Chain of EPHB4 (P54760 16-987): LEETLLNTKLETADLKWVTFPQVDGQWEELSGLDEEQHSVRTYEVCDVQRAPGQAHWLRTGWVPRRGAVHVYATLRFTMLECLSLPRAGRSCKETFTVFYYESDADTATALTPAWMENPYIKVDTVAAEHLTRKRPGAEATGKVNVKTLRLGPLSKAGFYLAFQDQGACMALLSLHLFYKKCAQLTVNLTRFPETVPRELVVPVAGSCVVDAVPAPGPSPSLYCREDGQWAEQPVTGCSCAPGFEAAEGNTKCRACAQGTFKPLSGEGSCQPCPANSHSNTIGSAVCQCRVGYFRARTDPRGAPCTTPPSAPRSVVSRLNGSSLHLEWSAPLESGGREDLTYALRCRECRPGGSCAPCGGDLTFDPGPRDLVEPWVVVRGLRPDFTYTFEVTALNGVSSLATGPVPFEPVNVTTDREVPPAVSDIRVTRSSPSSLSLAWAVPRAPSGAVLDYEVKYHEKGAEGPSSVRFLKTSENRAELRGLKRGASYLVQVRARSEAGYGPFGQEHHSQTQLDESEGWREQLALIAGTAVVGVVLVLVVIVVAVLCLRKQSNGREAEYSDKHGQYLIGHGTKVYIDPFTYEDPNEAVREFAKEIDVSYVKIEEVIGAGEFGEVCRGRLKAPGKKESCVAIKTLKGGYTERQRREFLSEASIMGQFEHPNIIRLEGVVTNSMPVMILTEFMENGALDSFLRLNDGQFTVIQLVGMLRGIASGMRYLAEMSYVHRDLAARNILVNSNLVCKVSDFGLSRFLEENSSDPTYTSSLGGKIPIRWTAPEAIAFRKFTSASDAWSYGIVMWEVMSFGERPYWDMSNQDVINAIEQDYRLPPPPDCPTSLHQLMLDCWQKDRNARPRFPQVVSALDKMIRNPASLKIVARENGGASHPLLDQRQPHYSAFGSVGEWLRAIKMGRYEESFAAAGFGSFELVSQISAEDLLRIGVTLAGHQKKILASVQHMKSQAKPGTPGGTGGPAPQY
smiles,measurement,setting,value
C#C[C@@](C)(c1ccc(Cl)cc1)c1csc(NC(=O)c2c(F)cc(N3CCNCC3)cc2F)n1 (stereo in doubt) [DF-003],remaining activity at 10 µM,[1],20.7%
same,remaining activity at 10 µM,[2],46.4%
same,remaining activity at 10 µM,[3],48.3%
same,remaining activity at 10 µM,[4],48.8%
same,remaining activity at 10 µM,[5],57.8%
same,remaining activity at 10 µM,[6],74.6%
same,remaining activity at 10 µM,[7],79.3%
same,remaining activity at 10 µM,[8],81.3%
same,remaining activity at 10 µM,[9],81.9%
same,remaining activity at 10 µM,[10],84.3%
same,remaining activity at 10 µM,[11],85.3%
same,remaining activity at 10 µM,[12],85.6%
same,remaining activity at 10 µM,[13],87.3%
same,remaining activity at 10 µM,[14],87.7%
same,remaining activity at 10 µM,[15],91.1%
same,remaining activity at 10 µM,[16],93.9%
same,remaining activity at 10 µM,[17],98.7%
same,remaining activity at 10 µM,[18],101%
same,remaining activity at 10 µM,[19],102%
same,remaining activity at 10 µM,[20],104%
same,remaining activity at 10 µM,[21],105%
same,remaining activity at 10 µM,[22],108%
same,remaining activity at 10 µM,[23],113%
same,remaining activity at 10 µM,[24],114%
same,remaining activity at 10 µM,[25],117%
same,remaining activity at 10 µM,[26],125%
same,remaining activity at 10 µM,[27],128%
same,remaining activity at 10 µM,[28],129%
same,Supernatant CXCL8 level (ELISA),[29]; Log [DF-003 (nM)] 0.3035,652.652 and 657.101 and 652.360
same,Supernatant CXCL8 level (ELISA),[29]; Log [DF-003 (nM)] 0.8032,717.775 and 649.393 and 582.315
same,Supernatant CXCL8 level (ELISA),[29]; Log [DF-003 (nM)] 1.3029,735.124 and 626.517 and 638.135
same,Supernatant CXCL8 level (ELISA),[29]; Log [DF-003 (nM)] 2.8020,0.000
same,Supernatant CXCL8 level (ELISA),[29]; Log [DF-003 (nM)] 3.3017,0.000
same,Supernatant CXCL8 level (ELISA),[29]; Log [DF-003 (nM)] 3.8013,0.000
same,Supernatant CXCL8 level (ELISA),[29]; Log [DF-003 (nM)] -0.1962,619.393 and 689.438 and 663.124
same,CAVG,[30]; 3 mg/kg oral,75.6 ± 5.53 ng/mL
same,CAVG,[30]; 5 mg/kg oral,164 ± 29.0 ng/mL
same,average time to Cmax (Tmax),"[30]; 3 and 5 mg/kg oral, 10th dose",2 to 2.67 h
same,DF-003 Conc. in tissues 24 hr after 10th dosing,"[30]; Cerebral Cortex, 3 mg/kg, individual animals",1358 and 1241 and 1263
same,DF-003 Conc. in tissues 24 hr after 10th dosing,"[30]; Cerebral Cortex, 5 mg/kg, individual animals",2520 and 2846 and 2696
same,DF-003 Conc. in tissues 24 hr after 10th dosing,"[30]; Optic Nerve, 3 mg/kg, 6 optic nerves from 3 mice of same dosing group combined into one sample",1104
same,DF-003 Conc. in tissues 24 hr after 10th dosing,"[30]; Optic Nerve, 5 mg/kg, 6 optic nerves from 3 mice of same dosing group combined into one sample",1615
same,DF-003 Conc. in tissues 24 hr after 10th dosing,"[30]; Retina, 3 mg/kg, individual animals",620 and 646 and 1356
same,DF-003 Conc. in tissues 24 hr after 10th dosing,"[30]; Retina, 5 mg/kg, individual animals",1351 and 1933 and 1171
same,concentration at 0 h,[30]; [31],46.4 ng/mL
same,concentration at 0.5 h,[30]; [31],78.6 ng/mL
same,concentration at 1 h,[30]; [31],110 ng/mL
same,concentration at 2 h,[30]; [31],123 ng/mL
same,concentration at 4 h,[30]; [31],115 ng/mL
same,concentration at 6 h,[30]; [31],92 ng/mL
same,concentration at 8 h,[30]; [31],99.9 ng/mL
same,concentration at 12 h,[30]; [31],73.9 ng/mL
same,concentration at 24 h,[30]; [31],19.5 ng/mL
same,concentration at 0 h,[30]; [32],142 ng/mL
same,concentration at 0.5 h,[30]; [32],168 ng/mL
same,concentration at 1 h,[30]; [32],228 ng/mL
same,concentration at 2 h,[30]; [32],218 ng/mL
same,concentration at 4 h,[30]; [32],238 ng/mL
same,concentration at 6 h,[30]; [32],174 ng/mL
same,concentration at 8 h,[30]; [32],162 ng/mL
same,concentration at 12 h,[30]; [32],122 ng/mL
same,concentration at 24 h,[30]; [32],45.6 ng/mL
same,AUC,[30]; 3 mg/kg,1820 ± 132 ng·h/mL
same,CL/F,[30]; 3 mg/kg,27.6 ± 1.94 mL/min/kg
same,Cmax,[30]; 3 mg/kg,160 ng/mL
same,Tmax,[30]; 3 mg/kg,2 h
same,Vd/F,[30]; 3 mg/kg,18.3 ± 1.55 L/kg
same,half-life,[30]; 3 mg/kg,7.69 h
same,AUC,[30]; 5 mg/kg,3940 ± 697 ng·h/mL
same,CL/F,[30]; 5 mg/kg,21.6 ± 4.11 mL/min/kg
same,Cmax,[30]; 5 mg/kg,310 ng/mL
same,Tmax,[30]; 5 mg/kg,2.67 ± 1.15 h
same,Vd/F,[30]; 5 mg/kg,16.5 ± 3.68 L/kg
same,half-life,[30]; 5 mg/kg,8.81 h
